“Also recorded” adds a separate entry of the source.
Assays:
[1] = test system: MDA-MB-231 and T47D-NRP-1; assay: In vitro cell proliferation (MTT, (H3)-thymidine, BrdU incorporation); assay type: cell-based, human; conditions: Leptin stimulation
Text: (§1) First MBA-MB-231 and T47D breast cancer cells line were selected for their high and undetectable NRP-1 expression respectively and the expression of Leptin receptor (OBR). In order to investigate NRP-1 and Leptin association in breast cancer cell line migration, we proceeded to NRP-1 expression silencing in MDA-MB-231 using either siRNA or shRNA approaches or NRP-1 overexpression in T47D. […] In contrast Leptin induced MDA-MB-231 migration that was decreased in siNRP-1 conditions. The in vitro data were confirmed in vivo by MDA-MB-231 and T47D xenografts in Nude mice. Modulation of NRP-1 expression either by shRNA silencing in MDA-MB-231 or by overexpression in T47D induced an increase of proliferation and a decrease of lymph node infiltration by MDA-MB-231-shNRP-1 and a decrease of proliferation and an increase of lymph node infiltration by T47D-NRP-1-RFP in mice treated with Leptin.
This observation can lead to conclude that NRP-1 induces tumor growth independently of Leptin/OBR pathway and that NRP-1/OBR complex signaling is in a favor of cell movement and migration induction. The implication of Leptin in tumor growth and metastasis has already been studied but the published data are contradictory depending on cancer cell type and model studies. […] In our case, in vitro leptin implication in cell growth has been evaluated by different methods. […]

MDA-MB-231 cells = assay: MDA-MB-231 cell migration / transmigration through insert; assay type: cell-based, human
Text: FIG. 5. NRP-1, OBR and leptin interactions confirmation using a Bio-Layer Interferometry (BLI) technology (fortebio.com/bli-technology.html): A-Leptin (OB) interaction to OBR is used as a positive control. Human neuropilin-1 (hNRP-1) interact with human OBR with a high affinity and specifically with human leptin (hOB) but not with murine leptin (mOB). VEGF165 binding to hNRP-1 is used as a positive control. B-Leptin and Avastin association increases MDA-MB231 cells transmigration through […] pore Insert. Avastin treatment may prevent a negative feedback control by VEGF of the pro-angiogenic signaling pathway of Leptin. VEGF binds to OBR which confirms our hypothesis that should be more investigated.
as §1
Leptin induced in vitro MDA-MB-231 migration that was decreased by NRP-1 repression using siRNA. Lel Xu et al have reported a direct evidence of NRP-1 up-regulation in tumors treated by anti-VEGF (Bevacizumab). […] This observation can be a first explanation of breast cancer therapy failure (increase of Progression survival while decreasing overall survival) by Bevacizumad and that was revoked by the FDA (Food and Drugs Administration, US).

[2] = test system: T47D-NRP-1-RFP xenografts; assay: Transcriptome of T47D-NRP-1-RFP xenografts treated or not with Leptin; assay type: in vivo, Nude mice; conditions: Leptin treated vs not treated T47D-NRP-1-RFP xenografts
Text: Although the Chip-Seq was realized on MDA-MB-231, we opted to realize a transcriptome of T47D overexpressing NRP-1-RFP xenografts compared to T47D-wt and T47D-RFP treated or not with Leptin regarding to the lymph node infiltration induced by the NRP-1 overexpression and its increase by Leptin treatment. To determine any direct association of NRP-1 in gene expression, we realize first a global analysis of transcriptome of T47D-NRP-1 xenografts treated and not treated with Leptin (n=8) compared to T47D-wt and T47D-RFP xenografts treated and not treated with Leptin (n=8). […] The analysis of gene expression in Leptin treated T47D-NRP-1-RFP compared to no treated xenografts, highlighted 66 genes with 31 genes enriched in the Chip-Seq of MDA-MB-231 and that were not detected in T47D-wt and T47D-RFP treated or not with Leptin. Only 4 genes enriched in the Chip-Seq contained peaks associated to transcription factor binding site such as FUS (fused in sarcoma, fold increase 1.79; p=0.045) for Pol2 and C12orf45 (chromosome 12 open reading frame, fold increase 1.29; p=0.03) for CTCF. […] Since Plasminogen Activator Inhibitor 1 (PAI.1) related to SERPINE1 gene has been associated to breast cancer invasion and metastasis, we evaluated PAI.1 expression by immunostaining in T47D-NRP-1-RFP xenografts compared to T47D-wt and T47D-RFP.

NRP-1 = NRP-1 (Homo sapiens, UniProt O14786); assay: Direct binding of Leptin to NRP-1 by HTRF and confocal microscopy
Text: NRP-1 has been reported to bind directly VEGF increasing thus the binding affinity of VEGF to its receptor VEGFR2 […] and Sema3A enabling thus its binding to Plexin 3A. Our study led us to highlight a new mechanism of NRP-1 function. […] NRP-1 repression by siNRP-1 decreased the BRET signal and OBR oligomerization.

[3] = test system: MDA-MB-231-shNRP-1 xenografts; assay: MDA-MB-231 xenografts in Nude mice; assay type: in vivo; conditions: Leptin treatment, KL1 staining
Text: as §1
(§2) This need to be more investigated and may be a new strategy for combined anti-Leptin and anti-VEGF therapies in breast cancer. […] In vitro and in vivo data are a direct evidence of NRP-1 and Leptin association in breast cancer cell line migration. This implication of Leptin and NRP-1 are in agreement of published data but with no association between Leptin and NRP-1.

[4] = test system: T47D-NRP-1-RFP xenografts; assay: T47D-NRP-1-RFP xenografts in Nude mice; assay type: in vivo
Text: as §1
as §2, with “NRP-1. […]” for “NRP-1.”

Leptin: small non glycosylated protein, ligand of OBR
cell proliferation [1]: decreased; also recorded: unable to observe; also recorded: not able to observe a significant increase
MDA-MB-231 migration induced by Bevacizumab, effect of Leptin (MDA-MB-231 cells; 10 μg/ml of Bevacizumab plus Leptin): increased
MDA-MB-231 migration (MDA-MB-231 cells; in vitro, Leptin alone): increased; also recorded: induced
C12orf45 gene expression, fold increase ([2]; p=0.03): 1.29 fold
FUS gene expression, fold increase ([2]; p=0.045): 1.79 fold
direct binding to NRP-1 (NRP-1): unable to bind directly
lymph node infiltration by MDA-MB-231-shNRP-1 [3]: did not increase
lymph node infiltration by T47D-NRP-1-RFP ([4]; Leptin treatment, human KL1 staining): significantly increased
tumor growth ([4]; T47D overexpressing NRP-1 xenograft treated with Leptin): tumor growth decrease

Reference: US11629192B2, “Methods and pharmaceutical compositions for the treatment of diseases mediated by the NRP-1/OBR complex signaling pathway” (INSERM (Institut National de la Sante et de la Recherche …, priority 2014, dated 2023)
